In ChEMBL document CHEMBL1149541, “Potent macrocyclic antagonists to the motilin receptor presenting novel unnatural amino acids” (Bioorg Med Chem Lett, 2007):

Key:
Motilin receptor [1] = molecular target: T1, Motilin receptor (Homo sapiens, UniProt O43193); test: Antagonist activity against human motilin receptor in aequoscreen cells assessed as inhibition of motilin induced calcium release by aequorin assay; type: functional, cell-based
Motilin receptor [2] = molecular target: T1, Motilin receptor; test: Displacement of [125I]motilin from human motilin receptor expressed in CHO cells; type: cell-based

T1 sequence (O43193 whole entry): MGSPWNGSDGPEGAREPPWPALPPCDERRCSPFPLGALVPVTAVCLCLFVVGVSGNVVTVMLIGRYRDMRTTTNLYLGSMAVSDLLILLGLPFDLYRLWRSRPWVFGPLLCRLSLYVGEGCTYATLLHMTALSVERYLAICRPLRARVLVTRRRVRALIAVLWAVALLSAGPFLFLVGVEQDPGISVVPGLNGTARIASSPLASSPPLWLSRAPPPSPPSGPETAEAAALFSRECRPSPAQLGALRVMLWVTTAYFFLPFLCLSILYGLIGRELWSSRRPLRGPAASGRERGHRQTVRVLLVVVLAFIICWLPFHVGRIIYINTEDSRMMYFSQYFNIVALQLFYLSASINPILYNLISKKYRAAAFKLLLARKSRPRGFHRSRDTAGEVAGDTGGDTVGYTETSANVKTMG

Row | SMILES | IC50 (Motilin receptor [1]) [nM] | Ki (Motilin receptor [2]) [nM]
1 | CC(C)[C@H]1NC(=O)[C@@H](Cc2cccc(Cl)c2)NCCOc2ccccc2CCCNC(=O)[C@H](Cn2cccn2)NC1=O | 56 | 18
2 | Cc1nnn(C[C@@H]2NC(=O)[C@@H](C(C)C)NC(=O)[C@@H](Cc3cccc(C(F)(F)F)c3)NCCOc3ccccc3CCCNC2=O)c1C | – | 23
3 | CNC[C@@H]1NC(=O)[C@@H](C(C)C)NC(=O)[C@@H](Cc2ccc(Cl)cc2)NCCOc2ccccc2CCCNC1=O | 33 | 31
4 | CC(C)[C@H]1NC(=O)[C@@H](Cc2ccc(Cl)cc2)NCCOc2ccccc2CCCNC(=O)[C@H](CN)NC1=O | – | 60
5 | CC(C)[C@H]1NC(=O)[C@@H](Cc2cccc(Cl)c2)NCCOc2ccccc2CCCNC(=O)[C@H](CNC2=NCCCN2)NC1=O | – | 87
6 | CC(C)[C@H]1NC(=O)[C@@H](Cc2cccc(F)c2)NCCOc2ccccc2CCCNC(=O)[C@H](Cc2cscn2)NC1=O | – | 116
7 | CC(C)[C@H]1NC(=O)[C@@H](Cc2ccc(Cl)cc2)NCCOc2ccccc2CCCNC(=O)[C@H](CN(C)C)NC1=O | – | 16
8 | CC(C)[C@H]1NC(=O)[C@@H](Cc2cccc(Cl)c2)NCCOc2ccccc2CCCNC(=O)[C@H](CN)NC1=O | – | 64
9 | CC(C)[C@H]1NC(=O)[C@@H](Cc2ccc(O)cc2)NCCOc2ccccc2/C=C/CNC(=O)[C@H](CCCN)NC1=O | – | 889
10 | CC(C)[C@H]1NC(=O)[C@@H](Cc2cccc(Cl)c2)NCCOc2ccccc2CCCNC(=O)[C@H](CCN=C(N)N)NC1=O | – | 33
11 | CC(C)[C@H]1NC(=O)[C@@H](Cc2ccc(Cl)cc2)NCCOc2ccccc2CCCNC(=O)[C@H](CN=C(N)N)NC1=O | – | 6
12 | CC(C)[C@H]1NC(=O)[C@@H](Cc2cccc(Cl)c2)NCCOc2ccccc2CCCNC(=O)[C@H](CN=C(N)N)NC1=O | – | 57
13 | CC(=O)NC[C@@H]1NC(=O)[C@@H](C(C)C)NC(=O)[C@@H](Cc2ccc(O)cc2)NCCOc2ccccc2CCCNC1=O | – | 1950
14 | CC(C)[C@H]1NC(=O)[C@@H](Cc2ccc(Cl)cc2)NCCOc2ccccc2CCCNC(=O)[C@H](CNC(N)=O)NC1=O | – | 543
15 | CC(C)[C@H]1NC(=O)[C@@H](Cc2cccc(C(F)(F)F)c2)NCCOc2ccccc2CCCNC(=O)[C@H](CN2CCCC2)NC1=O | 2 | 4.6
16 | CC(C)[C@H]1NC(=O)[C@@H](Cc2cccc(Cl)c2)NCCOc2ccccc2CCCNC(=O)[C@H](CCC(=N)N)NC1=O | – | 27
17 | CC(C)[C@H]1NC(=O)[C@@H](Cc2cccc(C(F)(F)F)c2)NCCOc2ccccc2CCCNC(=O)[C@H](CN)NC1=O | 8 | 15
18 | Cc1cnnn1C[C@@H]1NC(=O)[C@@H](C(C)C)NC(=O)[C@@H](Cc2cccc(C(F)(F)F)c2)NCCOc2ccccc2CCCNC1=O | – | 17
19 | CC(C)[C@H]1NC(=O)[C@@H](Cc2cccc(Cl)c2)NCCOc2ccccc2CCCNC(=O)[C@H](CNc2nccs2)NC1=O | – | 41
20 | CC(C)[C@H]1NC(=O)[C@@H](Cc2cccc(Cl)c2)NCCOc2ccccc2CCCNC(=O)[C@H](CN=C2NCCN2)NC1=O | – | 51
21 | CC(C)[C@H]1NC(=O)[C@@H](Cc2ccc(O)cc2)NCCOc2ccccc2CCCNC(=O)[C@H](CCN)NC1=O | – | 342
22 | CC(C)NC[C@@H]1NC(=O)[C@@H](C(C)C)NC(=O)[C@@H](Cc2ccc(O)cc2)NCCOc2ccccc2CCCNC1=O | – | 376
23 | CC(C)[C@H]1NC(=O)[C@@H](Cc2ccc(O)cc2)NCCOc2ccccc2CCCNC(=O)[C@H](CN)NC1=O | – | 171
24 | CC(C)[C@H]1NC(=O)[C@@H](Cc2cccc(Cl)c2)NCCOc2ccccc2CCCNC(=O)[C@H](CN(C)C)NC1=O | 95 | 27
25 | CC(C)[C@H]1NC(=O)[C@@H](Cc2cccc(Cl)c2)NCCOc2ccccc2CCCNC(=O)[C@H](Cn2ccnc2)NC1=O | – | 62
26 | Cc1nnnn1C[C@@H]1NC(=O)[C@@H](C(C)C)NC(=O)[C@@H](Cc2cccc(C(F)(F)F)c2)NCCOc2ccccc2CCCNC1=O | – | 21
27 | CNC[C@@H]1NC(=O)[C@@H](C(C)C)NC(=O)[C@@H](Cc2cccc(C(F)(F)F)c2)NCCOc2ccccc2CCCNC1=O | 3 | 6
28 | CC(C)[C@H]1NC(=O)[C@@H](Cc2cccc(Cl)c2)NCCOc2ccccc2CCCNC(=O)[C@H](CN/C(N)=N/C#N)NC1=O | – | 100
29 | CC(C)[C@H]1NC(=O)[C@@H](Cc2cccc(C(F)(F)F)c2)NCCOc2ccccc2CCCNC(=O)[C@H](CNC(=N)N)NC1=O | 28 | 6
30 | CC(C)[C@H]1NC(=O)[C@@H](Cc2cccc(C(F)(F)F)c2)NCCOc2ccccc2CCCNC(=O)[C@H](CNc2ncccn2)NC1=O | – | 20
